From publication PMC6269118, “Populene D Analogues: Design, Concise Synthesis and Antiproliferative Activity” (Molecules, 2012)
≈ marks a conversion by molar mass, not a printed value. Like-named read-outs stand apart in the source and are kept apart here.

Experiments:
MCF-7 (breast) cells = assay: Antiproliferative sulforhodamine B assay, MCF-7; type: cell-based; conditions: Homo sapiens, MCF7, MCF-7 mammary, 48 h treatment, SRB; for IC100: read-out: Total growth inhibition (TGI)
Experimental: (§1) The in vitro antiproliferative activity of populene analogues 2a–e and 3a–e was investigated toward nine human tumor cell lines [CNS (U251), breast (MCF-7), ovarian (NCI-ADR/RES, OVCAR-03), renal (786-0), non-small cell lung (NCI-H460), prostate (PC-3), colon (HT-29) and leukemia (k-562)] and one human normal cell line (HaCat, human keratinocytes). The populene D analogues were tested at concentrations between 0.25 and 250 µg/mL and doxorubicin (DOX 0.025–25 µg/mL) was used as positive control. […] To analyze the GI50 parameter, mean log GI50 was calculated by conversion of the GI50 values for each tumor cell line tested (not including the normal cell line HaCat) against a test compound and then these values were averaged.
(§2) Stock cultures were grown in 5 mL of RPMI 1640 (GIBCO BRL, Life Technologies) supplemented with 5% of fetal bovine serum. Penicillin:streptomycin (1,000 μg mL^−1:1,000 UI mL^‑1, 1 mL L^−1) was added to the experimental cultures.
(§3) Afterwards cells were fixed with 50% trichloroacetic acid and cell proliferation determined by spectrophotometric quantification (540 nm) of cellular protein content using sulforhodamine B assay[20]. Doxorubicin (0.025–25 mg/mL) was used as positive control. Three measurements were obtained at the beginning of incubation (time zero, T0) and 48 h post-incubation for compound-free (C) and tested (T) cells. Cell proliferation was determined according to the equation 100 × [(T − T0)/C − T0], for T0 < T ≤ C, and 100 × [(T − T0)/T0], for T ≤ T0 and a concentration-response curve for each cell line was plotted and, from these curves, GI50 (concentration causing 50% growth inhibition) and TGI (concentration that promotes total growth inhibition) were determined by means of non-linear regression analysis using software ORIGIN 8.0 (OriginLab Corporation) [20, 21] The average activity (mean of log GI50) of each compound tested was also determined using MS Excel software.

PC-3 (prostate) cells = assay: Antiproliferative sulforhodamine B assay, PC-3; type: cell-based; conditions: Homo sapiens, Prostate cell, 48 h treatment, SRB; for IC100: read-out: Total growth inhibition (TGI)
Experimental: (§4) The populene D analogues were tested at concentrations between 0.25 and 250 µg/mL and doxorubicin (DOX 0.025–25 µg/mL) was used as positive control. […] To analyze the GI50 parameter, mean log GI50 was calculated by conversion of the GI50 values for each tumor cell line tested (not including the normal cell line HaCat) against a test compound and then these values were averaged.
as §2, §3

U251 (glioma) cells = assay: Antiproliferative sulforhodamine B assay, U251; type: cell-based; conditions: Homo sapiens, U-251, 48 h treatment, SRB; for IC100: read-out: Total growth inhibition (TGI)
Experimental: as §1, §2, §3

HT-29 (colon) cells = assay: Antiproliferative sulforhodamine B assay, HT-29; type: cell-based; conditions: Homo sapiens, 48 h treatment, SRB; for IC100: read-out: Total growth inhibition (TGI)
Experimental: as §4, §2, §3

[1] = tested on: nine human tumor cell lines; assay: Average antiproliferative activity over the tumor cell line panel (NCI criteria); type: cell-based; conditions: for GI50: Homo sapiens, 48 h; for Cytostatic activity classified in words by NCI criteria on mean logGI50: weak 1.1-1.5, moderate 0-1.1, potent <0, inactive >1.5
Experimental: as §1
(§5) Cells in 96-well plates (100 μL cells/well) were exposed to various concentrations of compounds 2a–d and 3a–d diluted in DMSO (0.25, 2.5, 25 and 250 μg/mL) at 37 °C, 5% of CO2 for 48 h. […] Afterwards cells were fixed with 50% trichloroacetic acid and cell proliferation determined by spectrophotometric quantification (540 nm) of cellular protein content using sulforhodamine B assay[20]. Doxorubicin (0.025–25 mg/mL) was used as positive control. Three measurements were obtained at the beginning of incubation (time zero, T0) and 48 h post-incubation for compound-free (C) and tested (T) cells. Cell proliferation was determined according to the equation 100 × [(T − T0)/C − T0], for T0 < T ≤ C, and 100 × [(T − T0)/T0], for T ≤ T0 and a concentration-response curve for each cell line was plotted and, from these curves, GI50 (concentration causing 50% growth inhibition) and TGI (concentration that promotes total growth inhibition) were determined by means of non-linear regression analysis using software ORIGIN 8.0 (OriginLab Corporation) [20, 21] The average activity (mean of log GI50) of each compound tested was also determined using MS Excel software.

[2] = tested on: NCI-ADR/RES (ovarian expressing phenotype multiple drugs resistance) cells; assay: Antiproliferative sulforhodamine B assay, NCI-ADR/RES; type: cell-based; conditions: Homo sapiens, NCI-ADR/RES drug resistant ovary, 48 h treatment, SRB; for IC100: read-out: Total growth inhibition (TGI)
Experimental: as §1, §2, §3

K-562 (leukemia) cells = assay: Antiproliferative sulforhodamine B assay, K-562; type: cell-based; conditions: Homo sapiens, K562, 48 h treatment, SRB; for IC100: read-out: Total growth inhibition (TGI)
Experimental: as §1, §5

[3] = tested on: HaCat (immortalized human keratinocytes); assay: Antiproliferative sulforhodamine B assay, HaCat normal cell line; type: cell-based; conditions: 48 h treatment, SRB
Experimental: as §1, §2, §3

[4] = as above; type: cell-based, human; conditions: human; HaCat normal immortalized keratinocytes, 48 h treatment, SRB
Experimental: as §1, §2, §3

OVCAR-3 (ovarian) cells = assay: Antiproliferative sulforhodamine B assay, OVCAR-3; type: cell-based; conditions: Homo sapiens, OVCAR-3 ovary, 48 h treatment, SRB; for IC100: read-out: Total growth inhibition (TGI)
Experimental: as §4, §2, §3

786-0 (renal) cells = assay: Antiproliferative sulforhodamine B assay, 786-0; type: cell-based; conditions: Homo sapiens, 786-0 kidney, 48 h treatment, SRB; for IC100: read-out: Total growth inhibition (TGI)
Experimental: as §1, §2, §3

[5] = tested on: NCI-H460 (lung, non-small cells) cells; assay: Antiproliferative sulforhodamine B assay, NCI-H460; conditions: for GI50: Homo sapiens, NCI-H460, 48 h; for Total growth inhibition (TGI): NCI-H460 lung, 48 h treatment, SRB
Experimental: as §4, §2, §3

[6] = average of logGI50 (GI50 in μg/mL) over tumor cell lines tested, not including HaCat, read-out: Mean logGI50 (converted)
[7] = class symbol by NCI's criteria on mean logGI50, read-out: Mean logGI50 activity class (NCI's criteria)

Compound	GI50 (MCF-7 (breast) cells)	GI50 (U251 (glioma) cells)	GI50 (HT-29 (colon) cells)	GI50 (OVCAR-3 (ovarian) cells)	GI50 (786-0 (renal) cells)	melting point	GI50 [5]	IC100 (MCF-7 (breast) cells)	IC100 (U251 (glioma) cells)	IC100 (HT-29 (colon) cells)	GI50 [1, 6]	GI50 [1, 7]	Cytostatic activity classified in words by NCI criteria on mean logGI50 [1]	GI50 [2]	IC100 [2]	Total growth inhibition (TGI) [3]	GI50 at 48 h [4]	IC100 (OVCAR-3 (ovarian) cells)	IC100 (786-0 (renal) cells)	Total growth inhibition (TGI) [5]	other results
CC1COC(C)(C)C2=C1c1ccc(O)cc1CC2 (centres unmarked) [3b, 1,4,4-Trimethyl-1,4,5,6-tetrahydro-2H-benzo[f]isochromen-8-ol]	108 µg/mL (≈ 441 µM)	46.3 µg/mL (≈ 189 µM)	78.4 µg/mL (≈ 321 µM)	> 250 µg/mL	36.8 µg/mL (≈ 151 µM)	199 to 201 °C	41.4 µg/mL (≈ 169 µM)	> 250 µg/mL	> 250 µg/mL	> 250 µg/mL	> 100 µg/mL	> 31.6 µg/mL	inactive	> 250 µg/mL	> 250 µg/mL	>250 µg/mL	> 250 µg/mL	> 250 µg/mL	> 250 µg/mL	>250 µg/mL	GI50 (PC-3 (prostate) cells): > 250 µg/mL; IC100 (PC-3 (prostate) cells): > 250 µg/mL; GI50 (K-562 (leukemia) cells): 41.2 µg/mL (≈ 169 µM); IC100 (K-562 (leukemia) cells): > 250 µg/mL
CC1COC(C)(C)C2=C1c1cc(O)ccc1CC2 (centres unmarked) [3c, 1,4,4-Trimethyl-1,4,5,6-tetrahydro-2H-benzo[f]isochromen-9-ol]	24.7 µg/mL (≈ 101 µM)	27.8 µg/mL (≈ 114 µM)	22.9 µg/mL (≈ 93.7 µM)	1.8 µg/mL (≈ 7.37 µM)	24.6 µg/mL (≈ 101 µM)	160 to 162 °C	24.2 µg/mL (≈ 99 µM)	45 µg/mL	67.9 µg/mL	53.3 µg/mL	14.1 µg/mL (≈ 57.8 µM)	12.6 to 31.6 µg/mL (≈ 51.5 to 129 µM)	weak	25 µg/mL (≈ 102 µM)	200 µg/mL	>250 µg/mL	3.6 µg/mL (≈ 14.7 µM)	31.5 µg/mL	43 µg/mL	45.9 µg/mL	GI50 (PC-3 (prostate) cells): 24.5 µg/mL (≈ 100 µM); IC100 (PC-3 (prostate) cells): 51.8 µg/mL; GI50 (K-562 (leukemia) cells): 8.7 µg/mL (≈ 35.6 µM); IC100 (K-562 (leukemia) cells): 39.2 µg/mL
COc1cccc2c1C(=O)c1c(O)c3c(c(O)c1C2=O)C[C@@](O)(C(=O)CO)C[C@@H]3O[C@H]1C[C@H](N)[C@H](O)[C@H](C)O1 [Doxorubicine, doxorubicin, reference compound]	0.21 µg/mL (≈ 0.386 µM)	0.062 µg/mL (≈ 0.114 µM)	0.22 µg/mL (≈ 0.405 µM)	0.26 µg/mL (≈ 0.478 µM)	0.04 µg/mL (≈ 0.0736 µM)	–	< 0.025 µg/mL	8.8 µg/mL	1.1 µg/mL	25 µg/mL	0.166 µg/mL (≈ 0.305 µM)	< 1 µg/mL	–	1.3 µg/mL (≈ 2.39 µM)	25 µg/mL	0.67 µg/mL	0.23 µg/mL (≈ 0.423 µM)	3.9 µg/mL	0.62 µg/mL	0.025 µg/mL	GI50 (PC-3 (prostate) cells): 0.27 µg/mL (≈ 0.497 µM); IC100 (PC-3 (prostate) cells): 4.4 µg/mL; GI50 (K-562 (leukemia) cells): 0.4 µg/mL (≈ 0.736 µM); IC100 (K-562 (leukemia) cells): 25 µg/mL

Now from value to molecule, other results behind:

GI50 (MCF-7 (breast) cells)	GI50 (U251 (glioma) cells)	GI50 (HT-29 (colon) cells)	GI50 (OVCAR-3 (ovarian) cells)	GI50 (786-0 (renal) cells)	melting point	GI50 [5]	Compound	IC100 (MCF-7 (breast) cells)	IC100 (U251 (glioma) cells)	IC100 (HT-29 (colon) cells)	GI50 [1, 6]	GI50 [1, 7]	Cytostatic activity classified in words by NCI criteria on mean logGI50 [1]	GI50 [2]	IC100 [2]	Total growth inhibition (TGI) [3]	GI50 at 48 h [4]	IC100 (OVCAR-3 (ovarian) cells)	IC100 (786-0 (renal) cells)	Total growth inhibition (TGI) [5]	other results
24.6 µg/mL (≈ 89.7 µM)	23.1 µg/mL (≈ 84.2 µM)	6 µg/mL (≈ 21.9 µM)	24.3 µg/mL (≈ 88.6 µM)	24.1 µg/mL (≈ 87.8 µM)	141 to 143 °C	45.1 µg/mL (≈ 164 µM)	COc1cc2c(cc1O)C1=C(CC2)C(C)(C)OCC1C (centres unmarked) [3d, 8-Methoxy-1,4,4-trimethyl-1,4,5,6-tetrahydro-2H-benzo[f]isochromen-9-ol]	58.2 µg/mL	45.9 µg/mL	32.3 µg/mL	14.5 µg/mL (≈ 52.7 µM)	12.6 to 31.6 µg/mL (≈ 45.9 to 115 µM)	weak	5.2 µg/mL (≈ 19 µM)	37.6 µg/mL	160.7 µg/mL	4.2 µg/mL (≈ 15.3 µM)	69.9 µg/mL	47.8 µg/mL	>250 µg/mL	–
5.5 µg/mL (≈ 21.1 µM)	19.6 µg/mL (≈ 75.3 µM)	19.5 µg/mL (≈ 74.9 µM)	3.9 µg/mL (≈ 15 µM)	5.6 µg/mL (≈ 21.5 µM)	122 to 123 °C	17.4 µg/mL (≈ 66.8 µM)	CC1COC(C)(C)C2=C1c1cc(O)c(O)cc1CC2 (centres unmarked) [3e, 1,4,4-Trimethyl-1,4,5,6-tetrahydro-2H-benzo[f]isochromene-8,9-diol]	41.6 µg/mL	28.4 µg/mL	39 µg/mL	8.13 µg/mL (≈ 31.2 µM)	1 to 12.6 µg/mL (≈ 3.84 to 48.4 µM)	moderate	5.7 µg/mL (≈ 21.9 µM)	> 250 µg/mL	>250 µg/mL	4.2 µg/mL (≈ 16.1 µM)	34.4 µg/mL	19.4 µg/mL	>250 µg/mL	–
